This is an account of results in patent US20040162422A1, “Chemical compounds” (priority 2001, published 2004).

For assay [1], the target named is T1, human adenosine A3 receptors (Homo sapiens, UniProt P0DMS8).
T1 construct: expressed in transfected cells; host or cells: Chinese hamster ovary (CHO) cells with CRE/SPAP/HYG reporter
T1 sequence (P0DMS8 1-318): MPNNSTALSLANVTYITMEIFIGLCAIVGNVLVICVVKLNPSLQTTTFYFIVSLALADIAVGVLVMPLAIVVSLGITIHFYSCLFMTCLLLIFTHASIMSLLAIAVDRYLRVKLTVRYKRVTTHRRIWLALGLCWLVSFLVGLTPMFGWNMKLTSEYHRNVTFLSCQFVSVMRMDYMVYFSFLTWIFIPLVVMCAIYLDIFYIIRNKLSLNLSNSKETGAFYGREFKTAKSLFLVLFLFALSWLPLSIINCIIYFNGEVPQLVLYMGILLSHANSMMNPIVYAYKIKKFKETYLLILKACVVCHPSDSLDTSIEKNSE
Put plainly: Reporter gene experiments in CHO cells (CRE/SPAP, inhibition of forskolin-stimulated SPAP production). Conditions: ECR = equipotent concentration ratio relative to NECA = 1; agonist potency, CHO CRE/SPAP reporter gene assay. The class given is cell-based. From the text: The compounds useful in the invention are agonists at the adenosine A1 receptor. Preferably they are selective agonists at the adenosine A1 receptor. By selective is meant that the affinity for the A1 receptor is at least 2 times, preferably 5 times and more preferably 10 times greater than the other adenosine receptor subtypes, particularly A3. Agonist selectivity of compounds against other human adenosine receptors can be determined using Chinese hamster ovary (CHO) cells transfected with the gene for the relevant human adenosine receptor following a method based on that of Castanon, K V. and Spevak, W. (1994) Biochem. Biophys. Res. Commun. 198, 626-631. The CHO cells are also transfected with cyclic AMP response elements promoting the gene for secreted placental alkaline phosphatase (SPAP) (Wood, K V. (1995) Cuff. Opinion. Biotechnology, 6, 50-58). The effect of test compounds is determined by their effects on basal levels of cAMP (A2a) or on forskolin-enhanced cAMP (A1 and A3) as reflected by changes in levels of SPAP. EC50 values for compounds are determined as a ratio to that of the non-selective agonist N-ethyl carboxamidoadenosine (NECA). “Adenosine receptors: New opportunities for future drugs” (S. A. Poulsen et al, Bioorg. Med. Chem,. 1998, 6, 619-641) summarises disease conditions that may be treated with adenosine A1 agonists.
Reporter Gene Experiments in CHO cells
Agonist activity at human adenosine A3 receptors was measured in Chinese hamster ovary (CHO) cells containing the CRE/SPAP/HYG (CRE=cyclic AMP response element; HYG=hygromycin resistance; SPAP=secreted placental alkaline phosphatase) reporter gene elements, which upon stimulation of cAMP levels produced SPAP. A cell line was used which was stably transfected with the human adenosine A3 receptor in addition to the above elements. Cells were plated out in 96-well plates in culture medium and incubated at 37° C. for 1 hour. For measurement of potency, agonists were added to the appropriate wells at a concentration range of approximately 10^−10-10^−5M. 15 Min later, cAMP levels were stimulated by addition of a maximal concentration of forskolin. All cells were then incubated for a further 5 hours at 37° C., and cooled to room temperature, after which a substrate for the phosphatase (para-nitrophenol phosphate, pNPP), which is converted by SPAP to a coloured reagent) was then added and the 96-well plates were read in a plate reader. From these readings, the concentration-dependence of the inhibition by the agonist for forskolin-stimulated SPAP production can be calculated. As with the yeast assays, one of the agonists tested on each 96-well plate was the standard non-selective agonist, N-ethylcarboxamidoadenosine (NECA), and the potency of all test agonists is expressed relative to that of the NECA standard.
Background: A reporter such as luciferase makes a cellular process visible.

The target in assay [2] is T2, human adenosine A1 receptors (Homo sapiens, UniProt P30542).
T2 construct: expressed in transfected cells
T2 sequence (P30542 1-326): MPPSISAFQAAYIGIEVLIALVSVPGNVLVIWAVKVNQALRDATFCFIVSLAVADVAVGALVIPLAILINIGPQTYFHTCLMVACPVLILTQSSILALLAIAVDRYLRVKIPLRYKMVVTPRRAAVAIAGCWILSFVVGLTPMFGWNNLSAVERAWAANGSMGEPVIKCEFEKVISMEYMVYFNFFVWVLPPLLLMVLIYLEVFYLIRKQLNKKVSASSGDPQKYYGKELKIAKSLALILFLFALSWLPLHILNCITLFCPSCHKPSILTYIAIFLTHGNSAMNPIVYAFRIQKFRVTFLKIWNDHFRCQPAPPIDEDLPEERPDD
Put plainly: Reporter gene experiments in yeast (agonist activity, β-galactosidase/FDG readout). The class given is cell-based. The conditions noted are these: ECR = equipotent concentration ratio relative to NECA = 1; agonist potency, yeast reporter gene assay. On the set-up: key: equipotent concentration ratio relative to NECA = 1. On the procedure: Reporter Gene Experiments in Yeast
Agonist activity at human adenosine A1 receptors was measured in yeast cell lines expressing the adenosine A1 receptor together with a chimeric G-protein which linked receptor stimulation to the expression of the enzyme β-galactosidase. Cells were plated out in 96-well plates in culture medium to which was added 2 mM 3-AT (3-aminotriazole) to limit basal growth in the absence of agonist stimulation, and FDG (fluorescein di-β-D-galactopyranoside) as substrate for β-galactosidase, which converts FDG to fluorescein. For measurement of potency, agonists were added to the appropriate wells at a concentration range of approximately 10^−10-10^−5M and incubated at 30° C. for 18 hours. At this point the amount of fluorescein generated was measured in a spectrophotometer. From these readings, the concentration-dependence of the stimulation by the agonist can be calculated. One of the agonists tested on each 96-well plate was the standard non-selective agonist, N-ethylcarboxamidoadenosine (NECA), and the potency of all test agonists is expressed relative to that of the NECA standard.
(ECR=equipotent concentration ratio relative to NECA=1)

Some results are limits rather than exact numbers.

As to `C#C[C@H]1O[C@@H](n2cnc3c(NCCc4ccccc4)ncnc32)[C@H](O)[C@@H]1O` [Example 6, (2R,3R,4S,5R)-5-ethynyl-2-{6-[(2-phenylethyl)amino]-9H-purin-9-yl}tetrahydrofuran-3,4-diol], in assay [1], the “Adenosine A3 receptor ECR*” value is listed as more than 1059. The “Adenosine A1 receptor ECR*” value in assay [2] turned out to be 24.6.
As for `C#C[C@H]1O[C@@H](n2cnc3c(Nc4cccc(Cl)c4C)ncnc32)[C@H](O)[C@@H]1O` [Example 38, (2R,3R,4S,5R)-2-{6-[(3-Chloro-2-methylphenyl)amino]-9H-purin-9-yl}-5-ethynyltetrahydrofuran-3,4-diol], the “Adenosine A3 receptor ECR*” value in assay [1] is recorded as more than 145. Besides, the “Adenosine A1 receptor ECR*” value in assay [2] is on record as 5.45.
As to `C#C[C@H]1O[C@@H](n2cnc3c(Nc4ccc(F)cc4C)ncnc32)[C@H](O)[C@@H]1O` [Example 36, (2R,3R,4S,5R)-5-Ethynyl-2-{6-[(4-fluoro-2-methylphenyl)amino]-9H-purin-9-yl}tetrahydrofuran-3,4-diol], the “Adenosine A3 receptor ECR*” value in assay [1] is recorded as more than 1117. The “Adenosine A1 receptor ECR*” value in assay [2] came out at 7.15.
Turning to “(2R,3R,4S,5R)-5-Ethynyl-2-{6-[(trans-4-hydroxycyclohexyl)amino]-9H-purin-9-yl}tetrahydrofuran-3,4-diol [Example 19]”, in assay [1], the “Adenosine A3 receptor ECR*” value is on record as more than 3208. In addition, in assay [2], the “Adenosine A1 receptor ECR*” value amounted to 8.57.
The matching figures for `C#C[C@H]1O[C@@H](n2cnc3c(N[C@@H]4CCC[C@]4(OC)c4ccccc4)ncnc32)[C@H](O)[C@@H]1O` (relative stereo) [Example 9, (2R,3R,4S,6R)-5-Ethynyl-2-(6-{[(1R*,2S*)-2-methoxy-2-phenylcyclopentyl]amino}-9H-purin-9-yl)tetrahydrofuran-3,4-diol]: more than 165 and 23.81.
With `C#C[C@H]1O[C@@H](n2cnc3c(Nc4ccc(Cl)cc4F)ncnc32)[C@H](O)[C@@H]1O` [Example 33, (2R,3R,4S,5R)-2-{6-[(4-Chloro-2-fluorophenyl)amino]-9H-purin-9-yl}-5-ethynyltetrahydrofuran-3,4-diol], in assay [1], the “Adenosine A3 receptor ECR*” value is more than 215. In addition, the “Adenosine A1 receptor ECR*” value in assay [2] is listed as 26.31.
The matching figures for `C#C[C@H]1O[C@@H](n2cnc3c(Nc4ccc(F)cc4F)ncnc32)[C@H](O)[C@@H]1O` [Example 32, (2R,3R,4S,5R)-2-{6-[(2,4-Difluorophenyl)amino]-9H-purin-9-yl}-5-ethynyltetrahydrofuran-3,4-diol]: more than 1070 and 7.94.
The matching figures for `C#C[C@H]1O[C@@H](n2cnc3c(NC4CC4)ncnc32)[C@H](O)[C@@H]1O` [Example 10, (2R,3R,4S,5R)-2-[6-(Cyclopropylamino)-9H-purin-9-yl]-5-ethynyltetrahydrofuran-3,4-diol]: more than 1066 and 6.89.
